# Data from patent US4599424A, “5-substituted thiadiazole ureas and their use as herbicides” (priority 1979, dated 1986).
# Tested on: a variety of crops and weed species
# Assay: Pre- and post-emergence herbicide tests, overall assessment of TABLES III-VI
# Assay type: in vivo
# Details: from data of TABLES III-VI
# Procedure: All crop and weed species were planted individually in 3" plastic pots containing potting soil. Four seeds each of corn, cotton, and snapbeans were seeded to a depth equal to the diameter of the seed. All other species were surface seeded and sprinkled with screened soil in an amount sufficient to cover the seed. Immediately after planting, all pots were watered by sub-irrigation in greenhouse trays. Pots for the pre-emergence phase were seeded one day before treatment.
# Planting dates for the post-emergence phase were varied so that all seedlings would reach the desired stage of development simultaneously. The proper stage of seedling development for treatment in the post-emergence phase is as follows:
# Compounds were tested at rates of application equivalent to 8 lbs. of actual compound per acre in a spray volume of 38 gallons per acre. Spray hood constants required to deliver the above volume are as follows:
# Two weeks after treatment, pre- and post-emergence injury or control was visually rated, and the results were as shown in the following tables. Pre-emergence data are provided in TABLE III and post-emergence data are provided in TABLE IV, for compounds having the formula illustrated in TABLE I. Correspondingly, pre-emergence and post-emergence data, respectively, are set forth in TABLES V AND VI, for compounds having the formula illustrated in TABLE II.
# Typical of such compounds are: 1, 2, 5, 26, 36, and 37.
smiles,measurement,value
"CNC(=O)Nc1nnc(C(F)(F)F)s1 [Example 1, 1-Methyl-3-[5-Trifluoromethyl-2-(1,3,4-Thiadiazolyl)]Urea]",herbicidal effectiveness and selectivity (in words),extremely effective
"CN(C)C(=O)Nc1nnc(C(F)(F)F)s1 [Example 2, 1,1-Dimethyl-3-[5-Trifluoromethyl-2-(1,3,4-Thiadiazolyl)]Urea]",herbicidal effectiveness and selectivity (in words),extremely effective
"CSc1nnc(N(C)C(=O)N(C)C)s1 [Example 5, 1,1,3-trimethyl-3-[5-methylthio-2-(1,3,4-thiadiazolyl)]urea]",herbicidal effectiveness and selectivity (in words),extremely effective
CCNC(=O)Nc1nnc(C(F)(F)F)s1 [Example 9],herbicidal effectiveness and selectivity (in words),more selective
C=CCNC(=O)Nc1nnc(C(F)(F)F)s1 [Example 12],herbicidal effectiveness and selectivity (in words),"control post-emergence growth, while have little effect in regard to pre-emergence"
O=C(Nc1ccc(Cl)cc1)Nc1nnc(C(F)(F)F)s1 [Example 15],herbicidal effectiveness and selectivity (in words),more selective
O=C(Nc1ccc(Cl)c(Cl)c1)Nc1nnc(C(F)(F)F)s1 [Example 16],herbicidal effectiveness and selectivity (in words),more selective
Cc1nnc(NC(=O)N(C)C)s1 [Example 19],herbicidal effectiveness and selectivity (in words),converse of this relationship
CCc1nnc(NC(=O)N(C)C)s1 [Example 20],herbicidal effectiveness and selectivity (in words),more selective
